The values that follow are results of earlier work, collected in US20160213705A1, “METHOD TO TREAT ONYCHOMYCOSIS BY HYDROXYPROPYL CHITOSAN” (POLICHEM S.A., priority 2013, published 2016).

“And” between values parts separate entries of the source, which are not always exact repeats. Identical values can stand only once.

Data set [1] has as its system onychomycosis. The note with it: topical; according to the different vehicles used.
The subject of data set [2] is onychomycosis. The note with it: oral route.

In the case of `Cc1cc(C2CCCCC2)n(O)c(=O)c1` [ciclopirox], in data set [1], the cure rate was 12.7% and 5.8%. With `CN(C/C=C/C#CC(C)(C)C)Cc1cccc2ccccc12` [terbinafine], the “complete cure, proportion of patients” value in data set [2] is listed as 38%.
